Experiments:
Homo sapiens [1] = experiment: Ratio of drug concentration at steady state in human at 100 mg, po after 24 hrs to IC50 for human BSEP overexpressed in Sf9 insect cells; assay type: ADME, organism-based; settings: in vivo
[2] = target: ATP-binding cassette sub-family C member 3 (Homo sapiens, UniProt O15438); experiment: Inhibition of human MRP3 overexpressed in Sf9 insect cell membrane vesicles assessed as uptake of [3H]-estradiol-17beta-D-glucuronide in presence of ATP and GSH measured after 10 mins by membrane vesicle transport assay; assay type: ADME, cell-based
ATP-binding cassette sub-family C member 3, sequence (O15438 whole entry): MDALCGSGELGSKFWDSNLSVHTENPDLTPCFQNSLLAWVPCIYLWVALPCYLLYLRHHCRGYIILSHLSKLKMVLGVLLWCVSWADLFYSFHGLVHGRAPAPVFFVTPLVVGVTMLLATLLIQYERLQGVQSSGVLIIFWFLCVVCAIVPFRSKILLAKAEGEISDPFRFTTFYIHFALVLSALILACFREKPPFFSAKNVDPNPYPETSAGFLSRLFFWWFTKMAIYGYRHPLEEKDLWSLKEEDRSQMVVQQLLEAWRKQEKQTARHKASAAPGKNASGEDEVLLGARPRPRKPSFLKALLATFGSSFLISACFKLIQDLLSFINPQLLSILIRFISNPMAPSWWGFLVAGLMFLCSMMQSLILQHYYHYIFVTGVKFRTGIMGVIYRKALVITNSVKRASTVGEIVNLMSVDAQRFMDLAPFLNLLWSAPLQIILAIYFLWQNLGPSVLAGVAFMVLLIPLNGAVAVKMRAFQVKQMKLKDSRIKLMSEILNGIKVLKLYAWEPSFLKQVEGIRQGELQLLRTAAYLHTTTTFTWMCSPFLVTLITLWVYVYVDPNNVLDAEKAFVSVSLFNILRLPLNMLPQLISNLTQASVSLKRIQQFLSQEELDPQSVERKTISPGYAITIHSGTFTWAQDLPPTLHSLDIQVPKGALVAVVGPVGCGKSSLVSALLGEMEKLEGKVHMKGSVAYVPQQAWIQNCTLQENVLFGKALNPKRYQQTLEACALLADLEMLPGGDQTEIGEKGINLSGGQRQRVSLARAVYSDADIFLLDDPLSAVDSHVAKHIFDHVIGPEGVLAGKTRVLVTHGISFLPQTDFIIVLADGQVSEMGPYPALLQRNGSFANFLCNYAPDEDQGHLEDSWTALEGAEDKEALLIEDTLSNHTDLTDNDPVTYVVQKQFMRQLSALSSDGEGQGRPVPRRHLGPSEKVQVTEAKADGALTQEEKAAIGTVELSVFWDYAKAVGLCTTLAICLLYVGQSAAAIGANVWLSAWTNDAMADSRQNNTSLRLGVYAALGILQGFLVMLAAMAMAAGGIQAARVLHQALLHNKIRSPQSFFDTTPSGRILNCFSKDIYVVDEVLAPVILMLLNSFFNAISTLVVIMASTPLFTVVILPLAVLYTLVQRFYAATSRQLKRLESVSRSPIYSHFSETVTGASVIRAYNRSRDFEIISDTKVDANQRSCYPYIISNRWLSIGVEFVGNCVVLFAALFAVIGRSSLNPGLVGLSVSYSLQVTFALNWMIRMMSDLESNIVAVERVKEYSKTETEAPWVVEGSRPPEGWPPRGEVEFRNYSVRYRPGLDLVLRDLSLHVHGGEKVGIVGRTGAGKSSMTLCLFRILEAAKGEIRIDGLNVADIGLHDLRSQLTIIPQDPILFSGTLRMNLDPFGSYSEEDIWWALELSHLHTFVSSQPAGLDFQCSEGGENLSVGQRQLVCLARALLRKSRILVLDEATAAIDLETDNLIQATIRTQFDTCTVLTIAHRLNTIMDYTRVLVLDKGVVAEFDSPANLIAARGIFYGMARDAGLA

[3] = AUC in human at 100 mg, po QD after 24 hrs; assay type: ADME, organism-based; parameters: time < 24 hr, dose 100 mg, route oral; settings: in vivo
[4] = target: T1, ATP-binding cassette sub-family C member 4 (Homo sapiens, UniProt O15439); experiment: Inhibition of human MRP4 overexpressed in Sf9 cell membrane vesicles assessed as uptake of [3H]-estradiol-17beta-D-glucuronide in presence of ATP and GSH measured after 20 mins by membrane vesicle transport assay; assay type: ADME, cell-based
T1 sequence (O15439 whole entry): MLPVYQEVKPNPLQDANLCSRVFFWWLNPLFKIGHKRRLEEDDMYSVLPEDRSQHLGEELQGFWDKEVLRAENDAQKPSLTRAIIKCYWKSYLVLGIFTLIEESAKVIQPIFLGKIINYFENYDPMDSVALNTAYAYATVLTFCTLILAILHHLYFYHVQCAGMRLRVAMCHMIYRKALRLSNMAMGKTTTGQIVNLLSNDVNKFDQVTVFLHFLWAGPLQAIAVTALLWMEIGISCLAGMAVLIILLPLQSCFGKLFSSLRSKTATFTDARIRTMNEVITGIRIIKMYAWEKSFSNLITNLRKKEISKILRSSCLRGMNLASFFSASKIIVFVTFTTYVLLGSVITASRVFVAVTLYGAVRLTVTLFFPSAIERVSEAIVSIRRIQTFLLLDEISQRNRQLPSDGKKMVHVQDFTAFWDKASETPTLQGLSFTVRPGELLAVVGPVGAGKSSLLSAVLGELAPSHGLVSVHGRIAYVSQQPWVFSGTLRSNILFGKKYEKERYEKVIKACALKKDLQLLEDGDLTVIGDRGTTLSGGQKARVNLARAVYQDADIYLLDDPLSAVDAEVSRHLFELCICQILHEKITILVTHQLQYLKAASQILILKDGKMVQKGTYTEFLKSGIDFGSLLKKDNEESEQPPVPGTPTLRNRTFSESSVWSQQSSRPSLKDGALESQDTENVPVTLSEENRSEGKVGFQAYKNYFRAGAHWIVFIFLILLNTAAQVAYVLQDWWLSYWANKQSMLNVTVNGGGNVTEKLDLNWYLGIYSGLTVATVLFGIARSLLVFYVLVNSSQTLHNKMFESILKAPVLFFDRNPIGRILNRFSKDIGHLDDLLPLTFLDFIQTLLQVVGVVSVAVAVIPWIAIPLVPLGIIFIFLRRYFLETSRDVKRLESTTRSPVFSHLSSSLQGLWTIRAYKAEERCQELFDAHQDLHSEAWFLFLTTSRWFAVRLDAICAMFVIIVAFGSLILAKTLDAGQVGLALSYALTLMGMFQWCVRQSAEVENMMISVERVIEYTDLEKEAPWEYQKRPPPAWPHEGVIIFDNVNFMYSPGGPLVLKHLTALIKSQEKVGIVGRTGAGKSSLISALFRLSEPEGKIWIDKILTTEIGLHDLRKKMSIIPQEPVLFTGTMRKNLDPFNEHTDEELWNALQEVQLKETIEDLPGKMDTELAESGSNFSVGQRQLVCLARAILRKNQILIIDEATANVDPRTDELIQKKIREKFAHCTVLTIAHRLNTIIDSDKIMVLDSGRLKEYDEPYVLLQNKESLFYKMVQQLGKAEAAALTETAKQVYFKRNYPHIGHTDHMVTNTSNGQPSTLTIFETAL

Bile salt export pump = Bile salt export pump (Homo sapiens, UniProt O95342); experiment: Inhibition of human BSEP overexpressed in Sf9 cell membrane vesicles assessed as uptake of [3H]-taurocholate in presence of ATP measured after 15 to 20 mins by membrane vesicle transport assay; assay type: ADME, cell-based
Bile salt export pump, sequence (O95342 whole entry): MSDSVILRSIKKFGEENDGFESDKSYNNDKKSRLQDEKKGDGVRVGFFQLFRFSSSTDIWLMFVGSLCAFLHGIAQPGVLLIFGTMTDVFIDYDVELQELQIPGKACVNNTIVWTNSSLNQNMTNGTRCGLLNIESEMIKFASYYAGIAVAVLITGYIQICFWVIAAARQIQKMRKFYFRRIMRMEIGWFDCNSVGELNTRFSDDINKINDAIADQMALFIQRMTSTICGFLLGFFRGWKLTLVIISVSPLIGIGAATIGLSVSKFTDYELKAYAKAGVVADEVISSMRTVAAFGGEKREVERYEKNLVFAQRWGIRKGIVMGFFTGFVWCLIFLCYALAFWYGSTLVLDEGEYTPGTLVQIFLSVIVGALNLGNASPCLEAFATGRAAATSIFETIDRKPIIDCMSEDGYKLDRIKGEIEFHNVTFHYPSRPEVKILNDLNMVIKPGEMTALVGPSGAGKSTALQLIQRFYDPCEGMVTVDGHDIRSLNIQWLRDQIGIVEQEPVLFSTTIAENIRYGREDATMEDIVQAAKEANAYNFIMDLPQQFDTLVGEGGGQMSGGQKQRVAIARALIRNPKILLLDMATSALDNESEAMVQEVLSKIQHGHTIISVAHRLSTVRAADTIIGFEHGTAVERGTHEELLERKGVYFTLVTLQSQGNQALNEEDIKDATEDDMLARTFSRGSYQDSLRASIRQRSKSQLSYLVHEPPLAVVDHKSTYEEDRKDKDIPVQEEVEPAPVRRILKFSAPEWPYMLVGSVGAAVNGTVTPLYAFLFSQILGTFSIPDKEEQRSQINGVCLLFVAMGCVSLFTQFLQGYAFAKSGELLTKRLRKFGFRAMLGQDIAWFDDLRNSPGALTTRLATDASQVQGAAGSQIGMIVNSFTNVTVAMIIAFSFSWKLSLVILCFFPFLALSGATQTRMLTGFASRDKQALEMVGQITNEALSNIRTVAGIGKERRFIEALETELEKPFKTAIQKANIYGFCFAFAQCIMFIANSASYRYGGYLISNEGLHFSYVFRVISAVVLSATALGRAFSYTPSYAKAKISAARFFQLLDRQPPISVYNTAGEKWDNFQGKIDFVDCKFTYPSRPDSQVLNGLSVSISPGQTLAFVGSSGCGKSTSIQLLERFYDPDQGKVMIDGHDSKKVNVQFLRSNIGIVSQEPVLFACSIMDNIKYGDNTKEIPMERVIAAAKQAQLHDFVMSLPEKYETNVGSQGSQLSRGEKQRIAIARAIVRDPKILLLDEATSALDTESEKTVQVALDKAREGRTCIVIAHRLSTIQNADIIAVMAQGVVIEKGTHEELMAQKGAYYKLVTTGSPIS

[5] = Drug concentration at steady state in human at 100 mg, po QD after 24 hrs; assay type: ADME, organism-based; settings: in vivo, read-out: Css
[6] = target: ATP-binding cassette sub-family C member 2 (Homo sapiens, UniProt Q92887); experiment: Inhibition of human MRP2 overexpressed in Sf9 cell membrane vesicles assessed as uptake of [3H]-estradiol-17beta-D-glucuronide in presence of ATP and GSH measured after 20 mins by membrane vesicle transport assay
ATP-binding cassette sub-family C member 2, sequence (Q92887 whole entry): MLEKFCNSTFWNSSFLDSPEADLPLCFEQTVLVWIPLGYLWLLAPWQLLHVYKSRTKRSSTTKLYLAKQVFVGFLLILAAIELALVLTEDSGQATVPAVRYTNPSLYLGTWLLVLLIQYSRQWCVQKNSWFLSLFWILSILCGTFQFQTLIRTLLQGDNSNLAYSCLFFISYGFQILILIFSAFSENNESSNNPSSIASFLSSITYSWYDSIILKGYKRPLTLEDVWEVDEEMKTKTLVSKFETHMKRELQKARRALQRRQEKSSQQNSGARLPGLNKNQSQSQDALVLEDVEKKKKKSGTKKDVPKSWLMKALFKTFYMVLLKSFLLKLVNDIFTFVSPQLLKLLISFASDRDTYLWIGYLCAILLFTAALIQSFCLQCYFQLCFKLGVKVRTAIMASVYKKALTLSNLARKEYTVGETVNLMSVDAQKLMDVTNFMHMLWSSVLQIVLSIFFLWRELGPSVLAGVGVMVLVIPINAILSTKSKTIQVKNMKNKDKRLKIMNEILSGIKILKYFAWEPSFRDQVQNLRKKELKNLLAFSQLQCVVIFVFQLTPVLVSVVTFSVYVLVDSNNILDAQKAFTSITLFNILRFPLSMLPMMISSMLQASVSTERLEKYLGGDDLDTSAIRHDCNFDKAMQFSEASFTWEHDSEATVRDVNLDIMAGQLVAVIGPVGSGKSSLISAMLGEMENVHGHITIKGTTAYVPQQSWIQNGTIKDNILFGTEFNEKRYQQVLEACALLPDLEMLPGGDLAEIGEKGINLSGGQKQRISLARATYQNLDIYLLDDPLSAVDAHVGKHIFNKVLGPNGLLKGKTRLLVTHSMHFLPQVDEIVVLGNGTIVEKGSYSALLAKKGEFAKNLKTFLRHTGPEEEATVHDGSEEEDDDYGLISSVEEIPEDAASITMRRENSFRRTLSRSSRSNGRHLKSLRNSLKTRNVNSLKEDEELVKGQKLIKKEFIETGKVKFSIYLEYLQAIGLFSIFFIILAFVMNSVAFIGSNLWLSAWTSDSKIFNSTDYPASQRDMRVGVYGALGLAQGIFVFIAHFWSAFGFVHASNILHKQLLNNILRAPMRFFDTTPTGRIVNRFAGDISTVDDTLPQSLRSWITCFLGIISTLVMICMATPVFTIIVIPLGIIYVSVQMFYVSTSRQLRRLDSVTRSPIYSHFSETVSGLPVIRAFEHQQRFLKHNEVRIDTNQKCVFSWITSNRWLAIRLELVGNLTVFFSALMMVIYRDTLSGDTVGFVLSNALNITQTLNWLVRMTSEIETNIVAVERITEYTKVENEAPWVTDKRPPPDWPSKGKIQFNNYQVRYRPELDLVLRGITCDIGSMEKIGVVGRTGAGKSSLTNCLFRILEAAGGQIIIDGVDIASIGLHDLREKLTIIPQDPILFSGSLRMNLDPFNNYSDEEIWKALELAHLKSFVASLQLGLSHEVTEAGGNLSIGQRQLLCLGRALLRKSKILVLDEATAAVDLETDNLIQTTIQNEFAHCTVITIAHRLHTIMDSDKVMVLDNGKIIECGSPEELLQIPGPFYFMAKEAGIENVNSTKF

[7] = Drug concentration at steady state in human at 50 mg, po QD after 24 hrs; assay type: ADME, organism-based; settings: in vivo, read-out: Css
[8] = Ratio of drug concentration at steady state in human at 50 mg, po QD after 24 hrs to IC50 for human MRP3 overexpressed in Sf9 insect cells; assay type: ADME, organism-based; settings: in vivo
[9] = AUC in human at 50 mg, po QD after 24 hrs; assay type: ADME, organism-based; parameters: dose 50 mg, time < 24 hr, route oral; settings: in vivo
[10] = Ratio of drug concentration at steady state in human at 50 mg, po QD after 24 hrs to IC50 for human MRP2 overexpressed in Sf9 insect cells; assay type: ADME, organism-based; settings: in vivo
[11] = Ratio of drug concentration at steady state in human at 50 mg, po QD after 24 hrs to IC50 for human MRP4 overexpressed in Sf9 insect cells; assay type: ADME, organism-based; settings: in vivo
[12] = Ratio of drug concentration at steady state in human at 50 mg, po QD after 24 hrs to IC50 for human BSEP overexpressed in Sf9 insect cells; assay type: ADME, organism-based; settings: in vivo
[13] = Ratio of drug concentration at steady state in human at 100 to 400 mg, po BID after 12 hrs to IC50 for human BSEP overexpressed in Sf9 insect cells; assay type: ADME, organism-based; settings: in vivo
[14] = Ratio of drug concentration at steady state in human at 50 to 400 mg, po BID after 12 hrs to IC50 for human BSEP overexpressed in Sf9 insect cells; assay type: ADME, organism-based; settings: in vivo
[15] = Drug concentration at steady state in human at 50 to 400 mg, po BID after 12 hrs; assay type: ADME, organism-based; settings: in vivo, read-out: Css
[16] = AUC in human at 50 to 400 mg, po BID after 12 hrs; assay type: ADME, organism-based; settings: in vivo
[17] = Drug concentration at steady state in human at 40 to 80 mg, po QD after 24 hrs; assay type: ADME, organism-based; settings: in vivo, read-out: Css
[18] = Ratio of drug concentration at steady state in human at 40 to 80 mg, po QD after 24 hrs to IC50 for human MRP4 overexpressed in Sf9 insect cells; assay type: ADME, organism-based; settings: in vivo
[19] = AUC in human at 40 to 80 mg, po QD after 24 hrs; assay type: ADME, organism-based; settings: in vivo
[20] = Ratio of drug concentration at steady state in human at 40 to 80 mg, po QD after 24 hrs to IC50 for human BSEP overexpressed in Sf9 insect cells; assay type: ADME, organism-based; settings: in vivo
[21] = Drug concentration at steady state in human at 100 to 600 mg, po QD after 24 hrs; assay type: ADME, organism-based; settings: in vivo, read-out: Css
[22] = AUC in human at 100 to 600 mg, po QD after 24 hrs; assay type: ADME, organism-based; settings: in vivo
[23] = Ratio of drug concentration at steady state in human at 100 to 600 mg, po QD after 24 hrs to IC50 for human BSEP overexpressed in Sf9 insect cells; assay type: ADME, organism-based; settings: in vivo
[24] = AUC in human at 250 to 500 mg, po QD after 24 hrs; assay type: ADME, organism-based; settings: in vivo
[25] = AUC in human at 1.25 to 25 mg, po QD after 24 hrs; assay type: ADME, organism-based; settings: in vivo
[26] = Drug concentration at steady state in human at 1.25 to 25 mg, po QD after 24 hrs; assay type: ADME, organism-based; settings: in vivo, read-out: Css
Homo sapiens [27] = experiment: Drug concentration at steady state in human at 25 to 50 mg, po TID after 8 hrs; assay type: ADME, organism-based; settings: in vivo
Homo sapiens [28] = experiment: Ratio of drug concentration at steady state in human at 200 mg, po QD for 1 to 2 weeks after 24 hrs to IC50 for human BSEP overexpressed in Sf9 insect cells; assay type: ADME, organism-based; settings: in vivo
[29] = AUC in human at 200 mg, po QD for 1 to 2 weeks after 24 hrs; assay type: ADME, organism-based; parameters: time < 24 hr, dose 200 mg, route oral; settings: in vivo
[30] = Drug concentration at steady state in human at 200 mg, po QD for 1 to 2 weeks after 24 hrs; assay type: ADME, organism-based; settings: in vivo, read-out: Css

Structure (SMILES) | IC50 [2] [µM] | IC50 [4] [µM] | IC50 [6] [µM] | IC50 (Bile salt export pump) [µM] | other results
COCC(=O)O[C@]1(CCN(C)CCCc2nc3ccccc3[nH]2)CCc2cc(F)ccc2[C@@H]1C(C)C.Cl | > 133 | > 133 | > 133 | 43.8 | Ratio (Homo sapiens [1]): 0.017; AUC at 24 h [3]: 17.6 µM·h; concentration at 24 h [5]: 735 nM
CC(/C=C1\SC(=S)N(CC(=O)O)C1=O)=C\c1ccccc1 | 45.8 | 6.5 | 84.4 | 36.8 | concentration at 24 h [7]: 835 nM; Ratio [8]: 0.018; AUC at 24 h [9]: 20 µM·h; Ratio [10]: 0.01; Ratio [11]: 0.128; Ratio [12]: 0.01
COCC1=C(C(=O)OC(C)OC(=O)OC(C)C)N2C(=O)[C@@H](NC(=O)/C(=N\OC)c3csc(N)n3)[C@H]2SC1 (stereo partly drawn) [CEFPODOXIME PROXETIL] | > 133 | > 133 | > 133 | 81.7 | Ratio [13]: 0.022
C#C[C@]1(O)CC[C@H]2[C@@H]3CCC4=Cc5oncc5C[C@]4(C)[C@H]3CC[C@@]21C [DANAZOL] | > 133 | > 133 | > 133 | 18.7 | Ratio [14]: 0.024; concentration at 12 h [15]: 457 nM; AUC at 12 h [16]: 5.48 µM·h
Cc1nc(-c2ccc(OCC(C)C)c(C#N)c2)sc1C(=O)O [FEBUXOSTAT] | > 133 | 1.9 | > 133 | 42.9 | concentration at 24 h [17]: 1050 nM; Ratio [18]: 0.55; AUC at 24 h [19]: 25.1 µM·h; Ratio [20]: 0.024
CCOC(=O)Nc1ccc(NCc2ccc(F)cc2)nc1N [FLUPIRTINE] | > 133 | > 133 | > 133 | – | concentration at 24 h [21]: 832 nM; AUC at 24 h [22]: 20 µM·h; Ratio [23]: 0.023

More lines, main results first:

IC50 [2] [µM] | IC50 [4] [µM] | IC50 [6] [µM] | Structure (SMILES) | IC50 (Bile salt export pump) [µM] | other results
> 133 | – | > 133 | COc1cc2ncnc(Nc3ccc(F)c(Cl)c3)c2cc1OCCCN1CCOCC1 [GEFITINIB] | – | AUC at 24 h [24]: 5.38 µM·h
33 | 10.5 | – | COc1ccc(Cl)cc1C(=O)NCCc1ccc(S(=O)(=O)NC(=O)NC2CCCCC2)cc1 [GLYBURIDE] | – | AUC at 24 h [25]: 2.69 µM·h; concentration at 24 h [26]: 112 nM
66 | – | – | COc1ccc2c(c1)c(CC(=O)O)c(C)n2C(=O)c1ccc(Cl)cc1 [INDOMETHACIN] | – | Css (Homo sapiens [27]): 1118 nM
> 133 | > 133 | > 133 | CCC(C)n1ncn(-c2ccc(N3CCN(c4ccc(OCC5COC(Cn6cncn6)(c6ccc(Cl)cc6Cl)O5)cc4)CC3)cc2)c1=O (stereo not drawn) [ITRACONAZOLE] | – | Ratio (Homo sapiens [28]): 0.02; AUC at 24 h [29]: 8.69 µM·h; concentration at 24 h [30]: 362 nM

From ChEMBL document CHEMBL4028801, “A multifactorial approach to hepatobiliary transporter assessment enables improved therapeutic compound development” (Toxicol Sci, 2013)
